From patent publication US11883383B2, “Pharmaceutically acceptable salts of [3-(4- {2-butyl-1-[4-(4-chloro-phenoxy)-phenyl]-1H-imidazol-4-yl} -phenoxy)-propyl]-diethyl-amine” (vTv Therapeutics LLC, priority 2018, dated 2024)
Read-outs that look alike come from different tables or passages of the source.

Experiments:
Format in all cases: physicochemical
[1] = Thermogravimetric analysis (TGA) weight loss of crystalline hits; details: for Speculated Form: based on TGA/DSC characterization data
Procedure: (§1) TGA data were collected using a TA Q500 and Q550 from TA Instruments. DSC was performed using a TA Q2000 from TA Instruments. DSC was calibrated with Indium reference standard and the TGA was calibrated using nickel reference standard.
(§2) All hits were further characterized by TGA and DSC, with the stoichiometry determined by ^1H NMR or HPLC/IC. Based on the characterization data in Table 2 below, most of them were considered to be anhydrates.

[2] = Differential scanning calorimetry (DSC) endotherms of crystalline hits; details: for DSC Endo. (onset, ° C.): onset temperature; for DSC Endo., peak temperature: peak temperature (footnote *)
Procedure: as §1, §2

[3] = Stoichiometry (acid/freebase) by 1H NMR or HPLC/IC
Text: Solution NMR was collected on Bruker 500M NMR Spectrometer using DMSO-d6 and CD3OD as solvents.
Agilent 1100 HPLC was utilized to analyze the purity and stoichiometry, with detailed method listed in below.
IC method for counter-ion content measurement is listed below.
as §2

[4] = Salt/co-crystal screening: 38 acids, eight solvent systems, solids analysed by XRPD; details: acid/freebase charge 1:1 unless label says 2:1, stirred at RT, else 5° C. slurry, anti-solvent addition or evaporation (footnote marks)
Procedure: XRPD analysis was performed with a Panalytical X'Pert^3 Powder XRPD on a Si zero-background holder. The 2θ position was calibrated against Panalytical Si reference standard disc.
A total of 320 salt/co-crystal screening experiments were conducted using 38 acids (two molar ratios for HCl and HBr) and eight solvent systems. Specifically, freebase stock solutions of ˜100 mg/mL were first prepared in each solvent system. For each experiment, 0.2 mL stock solution and the corresponding acids were mixed in a molar charge ratio of 1:1 (acid/freebase, 2:1 for HCl/freebase and HBr/freebase as well), and then stirred at RT. After stirring for 3-5 days, if precipitation was observed, the precipitate was isolated. It no precipitation, the clear solutions were first transferred to slurry at 5° C. to introduce precipitation. Solutions without any precipitation were further subjected to anti-solvent addition (for solvents in column B/D, 0.5 mL hexane was added; for solvents in column G/H, 0.5 mL water was added; for solvent in column F, 0.5 mL n-heptane was added). If still no precipitation, the final clear solutions were transferred to evaporation at RT to induce precipitation. All solids isolated were vacuum dried at RT for 2 hrs before XRPD analysis.

| Compound | TGA Wt. Loss (%) [1] | Speculated Form [1] | DSC Endo. (onset, ° C.) [2] [°C] | Stoichiometry (acid/base) [3] | Solid obtained in salt screening (XRPD), solvent D Acetone/Hexane (1:2, v/v) [4] | Solid obtained in salt screening (XRPD), solvent H Dioxane/H2O (9:1, v/v) [4] | Solid obtained in salt screening (XRPD), solvent A Ethanol [4] | Solid obtained in salt screening (XRPD), solvent G Methanol/H2O (19:1, v/v) [4] | Solid obtained in salt screening (XRPD), solvent F Methyl tertbutyl ether [4] | Solid obtained in salt screening (XRPD), solvent C THF [4] | Solid obtained in salt screening (XRPD), solvent E Toluene [4] | further results |
| --- | --- | --- | --- | --- | --- | --- | --- | --- | --- | --- | --- | --- |
| CCCCc1nc(-c2ccc(OCCCN(CC)CC)cc2)cn1-c1ccc(Oc2ccc(Cl)cc2)cc1.O=C(O)/C=C/C(=O)O [Fumarate Type A] | negligible | Anhydrate | 115.0 | 1.00 | – | – | – | – | – | – | – | – |
| CCCCc1nc(-c2ccc(OCCCN(CC)CC)cc2)cn1-c1ccc(Oc2ccc(Cl)cc2)cc1.O=C(O)[C@@H](O)[C@H](O)[C@H](O)[C@@H](O)C(=O)O [Galactarate Type A] | – | Anhydrate | 158.4 | 0.98 | – | – | – | – | – | – | – | TGA Wt. Loss (%) ([1]; up to 130° C.): 0.6 up to %; DSC Endo., peak temperature [2]: 106.3 °C |
| CCCCc1nc(-c2ccc(OCCCN(CC)CC)cc2)cn1-c1ccc(Oc2ccc(Cl)cc2)cc1.O=C(O)c1cc(O)ccc1O [Gentisate Type A] | – | Hydrate | – | 1.01 | – | – | – | – | – | – | – | TGA Wt. Loss (%) ([1]; up to 120° C.): 1.8 up to % |
| CCCCc1nc(-c2ccc(OCCCN(CC)CC)cc2)cn1-c1ccc(Oc2ccc(Cl)cc2)cc1.O=C(O)c1cc(O)ccc1O [Gentisate Type B] | negligible | Anhydrate | 122.9 | 1.03 | – | – | – | – | – | – | – | – |
| Br.CCCCc1nc(-c2ccc(OCCCN(CC)CC)cc2)cn1-c1ccc(Oc2ccc(Cl)cc2)cc1 [HBr salt Type A] | negligible | Anhydrate | 169.9 | 1.05 | – | – | – | – | – | – | – | – |
| Br.CCCCc1nc(-c2ccc(OCCCN(CC)CC)cc2)cn1-c1ccc(Oc2ccc(Cl)cc2)cc1 [HBr salt Type B] | negligible | Anhydrate | – | 2.07 | – | – | – | – | – | – | – | – |
| CCCCc1nc(-c2ccc(OCCCN(CC)CC)cc2)cn1-c1ccc(Oc2ccc(Cl)cc2)cc1.Cl [HCl salt Type A] | negligible | Anhydrate | 167.0 | 1.33 | – | – | – | – | – | – | – | – |
| CCCCc1nc(-c2ccc(OCCCN(CC)CC)cc2)cn1-c1ccc(Oc2ccc(Cl)cc2)cc1.O=C(O)CNC(=O)c1ccccc1 [Hippurate Type A] | negligible | Anhydrate | 72.7 | 0.98 | – | – | – | – | – | – | – | DSC Endo., peak temperature [2]: 44.3 °C |
| CCCCc1nc(-c2ccc(OCCCN(CC)CC)cc2)cn1-c1ccc(Oc2ccc(Cl)cc2)cc1.O=C(O)C[C@H](O)C(=O)O [L-Malate Type A] | negligible | Anhydrate | 67.8 | 1.11 | – | – | – | – | – | – | – | – |
| CCCCc1nc(-c2ccc(OCCCN(CC)CC)cc2)cn1-c1ccc(Oc2ccc(Cl)cc2)cc1.O=C(O)C(O)C(O)C(=O)O [L-Tartrate Type A] | – | Hydrate | 76.4 | 1.00 | – | – | – | – | – | – | – | TGA Wt. Loss (%) ([1]; up to 60° C.): 2.1 up to % |
| CCCCc1nc(-c2ccc(OCCCN(CC)CC)cc2)cn1-c1ccc(Oc2ccc(Cl)cc2)cc1.O=C(O)/C=C\C(=O)O [Maleate Type A] | negligible | Anhydrate | 120.2 | 0.97 | – | – | – | – | – | – | – | – |
| CCCCc1nc(-c2ccc(OCCCN(CC)CC)cc2)cn1-c1ccc(Oc2ccc(Cl)cc2)cc1.O=C(O)C(=O)O [Oxalate Type A] | negligible | Anhydrate | 109.5 | 1.12 | – | – | – | – | – | – | – | – |
| CCC(=O)O [Propionic acid] | – | – | – | – | gel* | amorphous* | gel* | FB Type A^& | FB Type B* | gel* | gel* | Solid obtained in salt screening (XRPD), solvent B Ethyl acetate/Hexane (1:2, v/v) [4]: FB Type A |
| O=C(O)[C@H](O)c1ccccc1 [R-mandelic acid] | – | – | – | – | gel | amorphous* | amorphous* | amorphous* | gel | gel | gel | Solid obtained in salt screening (XRPD), solvent B Ethyl acetate/Hexane (1:2, v/v) [4]: gel* |
| O=C1NS(=O)(=O)c2ccccc21 [Saccharin] | – | – | – | – | gel | amorphous* | amorphous* | – | – | gel | gel | – |
| O=C(O)c1ccccc1O [Salicyclic acid] | – | – | – | – | amorphous* | amorphous* | gel* | amorphous* | amorphous^& | gel* | gel* | Solid obtained in salt screening (XRPD), solvent B Ethyl acetate/Hexane (1:2, v/v) [4]: amorphous* |
| CCCCCCCCCCCCCCCCCC(=O)O [Stearic acid] | – | – | – | – | – | amorphous^& | – | – | FB Type A* | – | – | – |
| O=C(O)CCC(=O)O [Succnic acid] | – | – | – | – | amorphous* | amorphous* | gel* | amorphous* | FB Type B* | gel* | gel* | Solid obtained in salt screening (XRPD), solvent B Ethyl acetate/Hexane (1:2, v/v) [4]: amorphous* |
| COc1cc(C(=O)O)ccc1O [Vanillic acid] | – | – | – | – | – | amorphous* | amorphous | amorphous* | – | gel | gel | – |
| COc1cc(C=O)ccc1O [Vanillin] | – | – | – | – | gel* | FB Type A^& | gel* | amorphous^& | amorphous* | gel | gel | Solid obtained in salt screening (XRPD), solvent B Ethyl acetate/Hexane (1:2, v/v) [4]: gel* |
| O=C(O)/C=C/c1ccccc1 [trans Cinnamic acid] | – | – | – | – | gel | amorphous* | amorphous | amorphous* | amorphous* | gel | gel | Solid obtained in salt screening (XRPD), solvent B Ethyl acetate/Hexane (1:2, v/v) [4]: gel |
